Activity and IC50 data for two molecules are collected here from ChEMBL document CHEMBL1130542, “Design and synthesis of an -mannosyl terpenoid as selective inhibitor of P-selectin” (Bioorg Med Chem Lett, 1997).

Active and inactive are the calls of the source. The calls are words filed in the database; no cut-off is given here.

The target in assay [1] is T1, E-selectin (Homo sapiens) (UniProt P16581).
T1 sequence (whole entry): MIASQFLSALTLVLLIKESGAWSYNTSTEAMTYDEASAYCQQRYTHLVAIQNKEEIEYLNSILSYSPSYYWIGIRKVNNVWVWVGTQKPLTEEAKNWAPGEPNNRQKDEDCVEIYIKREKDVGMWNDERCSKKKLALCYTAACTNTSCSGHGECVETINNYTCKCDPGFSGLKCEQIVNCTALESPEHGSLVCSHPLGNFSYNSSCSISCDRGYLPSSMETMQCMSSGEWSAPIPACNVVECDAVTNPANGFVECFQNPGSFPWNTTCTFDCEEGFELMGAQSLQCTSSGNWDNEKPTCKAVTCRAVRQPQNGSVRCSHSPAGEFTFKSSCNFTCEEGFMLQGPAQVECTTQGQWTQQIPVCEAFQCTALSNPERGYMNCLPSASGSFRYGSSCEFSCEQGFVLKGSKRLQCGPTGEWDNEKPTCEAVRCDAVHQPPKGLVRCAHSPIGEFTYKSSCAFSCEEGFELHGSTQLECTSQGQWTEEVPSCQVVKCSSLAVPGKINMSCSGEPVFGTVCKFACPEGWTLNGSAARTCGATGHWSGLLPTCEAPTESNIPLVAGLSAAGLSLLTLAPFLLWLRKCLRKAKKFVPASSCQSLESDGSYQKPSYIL
The assay can be described thus: Inhibitory activity against Selectin E was determined; IA=Inactive.

The target in assay [2] is T2, L-selectin (Homo sapiens) (UniProt P14151).
T2 sequence (whole entry): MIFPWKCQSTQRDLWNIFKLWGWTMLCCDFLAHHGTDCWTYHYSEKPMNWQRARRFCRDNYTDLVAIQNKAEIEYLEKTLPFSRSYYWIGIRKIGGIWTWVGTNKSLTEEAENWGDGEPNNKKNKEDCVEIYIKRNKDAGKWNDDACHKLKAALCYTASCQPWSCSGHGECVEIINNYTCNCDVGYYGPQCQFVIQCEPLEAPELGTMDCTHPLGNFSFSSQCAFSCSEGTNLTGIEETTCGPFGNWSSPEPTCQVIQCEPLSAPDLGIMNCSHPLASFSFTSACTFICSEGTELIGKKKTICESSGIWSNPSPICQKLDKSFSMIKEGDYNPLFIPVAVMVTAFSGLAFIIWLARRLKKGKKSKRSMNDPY
Kind of assay: Inhibitory activity against L-selectin was determined; IA=Inactive.

A further assay addresses T3, P-selectin (Homo sapiens, UniProt P16109).
T3 sequence (P16109 whole entry): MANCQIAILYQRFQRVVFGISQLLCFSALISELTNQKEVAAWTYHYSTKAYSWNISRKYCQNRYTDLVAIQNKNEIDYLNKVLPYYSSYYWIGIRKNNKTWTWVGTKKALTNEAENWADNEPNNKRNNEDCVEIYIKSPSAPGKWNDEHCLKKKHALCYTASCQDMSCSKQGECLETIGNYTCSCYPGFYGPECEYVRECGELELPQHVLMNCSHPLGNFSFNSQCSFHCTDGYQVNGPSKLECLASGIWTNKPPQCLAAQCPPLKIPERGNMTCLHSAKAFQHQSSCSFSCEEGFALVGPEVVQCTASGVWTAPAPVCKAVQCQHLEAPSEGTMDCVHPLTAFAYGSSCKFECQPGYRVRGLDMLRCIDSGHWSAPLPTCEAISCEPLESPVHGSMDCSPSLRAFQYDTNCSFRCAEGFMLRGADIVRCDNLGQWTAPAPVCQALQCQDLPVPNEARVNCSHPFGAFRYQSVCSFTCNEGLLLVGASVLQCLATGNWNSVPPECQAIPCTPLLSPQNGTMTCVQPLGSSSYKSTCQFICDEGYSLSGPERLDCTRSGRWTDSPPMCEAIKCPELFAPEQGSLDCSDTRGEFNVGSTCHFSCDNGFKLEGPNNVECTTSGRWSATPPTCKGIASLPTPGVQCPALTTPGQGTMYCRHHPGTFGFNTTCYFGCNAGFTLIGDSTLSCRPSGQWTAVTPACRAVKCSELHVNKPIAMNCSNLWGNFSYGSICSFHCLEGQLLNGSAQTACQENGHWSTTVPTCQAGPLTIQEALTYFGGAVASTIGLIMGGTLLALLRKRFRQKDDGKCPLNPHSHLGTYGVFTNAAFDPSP
The assay can be described thus: Inhibitory activity against P-selectin was determined.

The target of assay [3] is T4, P-selectin (Homo sapiens) (UniProt P16109).
T4 sequence (whole entry): T3 sequence (P16109 whole entry)
The assay can be described thus: Inhibitory activity against P-selectin was determined; IA=Inactive.

Take `C[C@@]12CCC[C@@](C)(C(=O)O)C1CC[C@@]13C[C@@H](O[C@H]4O[C@H](CO)[C@@H](O)[C@@H](O)[C@@H]4O)[C@@](C)(CCC12)C3` (stereo partly specified): the result in assay [1] and in assay [2] was inactive. Also, the IC50 against P-selectin was 60 µM.

For `C[C@@]12CCC[C@@](C)(C(=O)O)C1CC[C@]13C[C@H](O[C@H]4O[C@H](CO)[C@@H](O)[C@@H](O)[C@@H]4O)[C@](O)(CCC12)C3` (stereo partly specified), the result in assay [1], in assay [2] and in assay [3] was inactive.

What is called IC50 is the concentration needed to halve the response being measured. Low readings indicate inhibition by little substance, high ones a need for much substance.
